Test [1] relates to murine CMV. As to the kind of experiment: Neutralizing CMV antibodies in sera of CMV-infected mice (plaque reduction on mouse embryonic fibroblast). To be noted: the 7 positive sera of LTB4 treated mice; 1/100 dilution; 175 pfu murine CMV. The format is in vivo, BALB/c mice. On the procedure: Lastly, the sera from each mouse infected with CMV and treated with saline or LTB4 (see above) were analyzed for neutralizing antibodies. Briefly, a 1/100 dilution of individual serum was incubated with 175 pfu of murine CMV for 1 hour on ice. Samples (sera-virus) were then added to mouse embryonic fibroblast and incubated at 37° C. for 2 hour. Unadsorbed viruses were removed and cells were overlaid with methyl cellulose and incubated for 4 days at 37° C. in a humidified atmosphere with 5% CO2. At this time cells were fixed, colored with violet crystal and the number of plaques (CMV infected foci) counted. […] Uninfected mice had no neutralizing antibodies against CMV, as expected. […] We next compared the neutralizing activity of sera that tested positive for CMV neutralization. The 2 sera of infected mice that received saline were able to reduce, in average, CMV infectivity by 24%. In contrast, the 7 sera of LTB4 treated-mice were found capable of reducing CMV infectivity by 45%, almost twice the activity of control mice.
The serum from each mouse, described above, were tested for their CMV neutralizing activity. Briefly, a 1/100 dilution of individual serum was incubated with 175 pfu of murine CMV for 1 hour on ice. […] At this time cells were fixed, colored with violet crystal and the number of plaques (CMV infected foci) counted. […]

The next test has as its system Influenza. As to the kind of experiment: Anti-Influenza antibody generation in BALB/c mice following immunization with the Fluviral vaccine (ELISA). It is filed as in vivo. To be noted: intramuscular. The protocol:
To test the adjuvant potential of LTB4, groups of 10 BALB/c mice were immunized once by intramuscular injection with 5 μl of the commercial “Fluviral” vaccine preparation in combination with saline or 1 ng of LTB4. Fourteen days following immunization, mice were bled and sera analyzed for specific anti-Influenza IgG antibodies by ELISA.
Adult (6-8 weeks) BALB/c female mice were immunized by intramuscular injection with 5 μl of the commercial Influenza (Fluviral) vaccine in combination or not with 1 ng of LIB4. Fourteen days later, mice were bled by cardiac puncture and sera obtained. Anti-Influenza antibodies were quantitated by enzyme-linked immunosorbent assay (ELISA). Wells of a 96-well plate were coated with the Fluvial vaccine preparation ( 1/100 dilution) in 0.1 M carbonate buffer (pH 9.0) by overnight incubation at 4° C. Wells were washed with Tris-buffered saline with 0.1% Tween-20 (TBS-T) followed by the addition of 100 μl of increasing dilutions of the sera to be tested. […] After 30 minutes, the absorbance (405 nm) from each well was recorded using an ELISA plate reader. The values, expressed as optical density (OD), were plotted against the reciprocal of serum dilution.
In general terms: ELISA stands for enzyme-linked immunosorbent assay.

In test [2] the test system is murine CMV. As to the kind of experiment: Total anti-CMV antibodies following acute CMV infection in BALB/c mice (ELISA). To be noted: LTB4 5 μg/kg i.p. 3 times a week for 12 weeks from day 5 post-infection. The format is in vivo. On the procedure: Our next series of experiments were designed to test the potential of LTB4 to modulate antibody response during an acute CMV infection. BALB/c mice were infected by intraperitoneal (i.p.) injection with 10,000 pfu of murine CMV. On day 5 post-infection, mice (n=10) received saline by i.p. injection or LTB4 (5 μg/kg) (n=9) by i.p. injection 3 times a week for 12 weeks. At that time, sera was taken from each mouse and tested for anti-CMV specific antibodies.
Adult (6-8 weeks) female BALB/c mice were infected by intraperitoneal (I.P.) injection with 1×10^4 pfa of murine CMV. Starting on the fifth day post-infection, mice were injected with saline or LTB4 (5 μg/kg) by I.P. injection at a frequency of three times a week for 12 weeks. Mice were then bled and sacrificed. Total anti-CMV antibodies from each mouse were quantified by ELISA. ELISA plates were coated with a lysates from CMV-infected fibroblasts as the source of CMV antigens. One μg of protein lysates were added to each well and incubated-overnight at 4° C. After several washes with TBS-T, non-specific sites were blocked by the addition of saline containing 10% fetal bovine serum for one hour at room temperature. […] After 30 minutes, the absorbance (405 nm) from each well was recorded using an ELISA plate reader. The values, expressed as optical density (OD), were plotted against the reciprocal of serum dilution. […]

The next test deals with B lymphocytes. To be noted: cited from earlier work.
Test [3] deals with mycobacterium tuberculosis. It is filed as in vivo, BALB/c mice. To be noted: 1-10 ng LTB4 with BCG vaccine, intradermal on days 0, 24, 68 and 145; sera at day 160.

Molecules are shown by their SMILES. “Also recorded” adds a separate entry of the source.

For the compound `CCCCC/C=C\C[C@@H](O)/C=C/C=C/C=C\[C@@H](O)CCCC(=O)O` [LTB4, Leukotriene B4], the “reduction of CMV infectivity by sera positive for CMV neutralization (average)” value with murine CMV [1] was found to be 45%. For the same compound, in the test with Influenza (1 ng LTB4 with 5 μl Fluviral vaccine, once, sera at day 14, p<0.05 in all three dilutions), the “anti-Influenza IgG antibody response (ELISA OD) versus vaccine + saline” value is “greater anti-Influenza antibody response; also recorded: significantly higher anti-Influenza antibody response”. The “optimal dose of LTB4 as adjuvant” value with Influenza (with 5 μl Fluviral vaccine) is reported as 1 ng. Besides, the “total anti-CMV antibodies (ELISA OD) versus saline-treated group” value in the test with murine CMV [2] is “more anti-CMV antibodies”. Moreover, the “effect on B cell proliferation or immunoglobulin synthesis (IgG or IgM)” value with B lymphocytes (LTB4 by itself, in absence of exogenous cytokines or stimuli, in vitro) is “no effects”. The “effect on synthesis of immunoglobulin from B lymphocytes” value in the test on B lymphocytes (conflicting paper (Rola-Plecszczynski 1982)) is given as “inhibitory effects”. The “anti-BCG antibodies (ELISA OD) versus BCG + saline” value in test [3] is recorded as “higher levels of anti-BCG antibodies; also recorded: greater reactivity against mycobacterium antigens”.

(Values after patent publication US7914800B2, “LTB4 as vaccine adjuvant” (priority 2001, dated 2011).)
